Data published in PubChem BioAssay AID330 (DTP/NCI, 2004).
Several values for one entry are separate records, joined by “and”; a condition that tells them apart may be missing. Equal entries are not always repeated. Inconclusive results and toxic doses are left out. Rule for the calls: active = survival T/C of 150% or more; inactive = T/C below 125% in these data.

Test system: P388 leukemia ip, CD2F1 mice, survival T/C
Assay: NCI In Vivo Anticancer Drug Screen. Data for tumor model P388 Leukemia (intraperitoneal) in CD2F1 (CDF1) mice
Details: endpoint: median survival time, higher = longer survival
How it was run: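 Mice carrying the transplanted tumor received test compound or vehicle. Survival was recorded in each group, and the value is the treated-group measurement divided by that of the vehicle-treated control group.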

[1] = dose: 50.0 mg/kg/injection, schedule: Q01DX005 (ip), vehicle: Klucel (hydroxypropylcellulose) (HPC)
[2] = dose: 100.0 mg/kg/injection, schedule: Q01DX005 (ip), vehicle: Klucel (hydroxypropylcellulose) (HPC)
[3] = dose: 200.0 mg/kg/injection, schedule: Q01DX005 (ip), vehicle: Klucel (hydroxypropylcellulose) (HPC)
[4] = dose: 50.0 mg/kg/injection, schedule: Q01DX005 (ip), vehicle: saline with Tween-80
[5] = dose: 100.0 mg/kg/injection, schedule: Q01DX005 (ip), vehicle: saline with Tween-80
[6] = dose: 200.0 mg/kg/injection, schedule: Q01DX005 (ip), vehicle: saline with Tween-80
[7] = dose: 50.0 mg/kg/injection, schedule: Q01DX009 (ip), vehicle: saline with Tween-80
[8] = dose: 100.0 mg/kg/injection, schedule: Q01DX009 (ip), vehicle: saline with Tween-80
[9] = dose: 200.0 mg/kg/injection, schedule: Q01DX009 (ip), vehicle: saline with Tween-80
[10] = dose: 60.0 mg/kg/injection, schedule: Q01DX005 (ip), vehicle: saline with Tween-80
[11] = dose: 120.0 mg/kg/injection, schedule: Q01DX005 (ip), vehicle: saline with Tween-80
[12] = dose: 60.0 mg/kg/injection, schedule: Q01DX005 (ip), vehicle: saline
[13] = dose: 120.0 mg/kg/injection, schedule: Q01DX005 (ip), vehicle: saline
[14] = dose: 240.0 mg/kg/injection, schedule: Q01DX005 (ip), vehicle: saline

Measured: T/C

O=c1oc2c(ccc3c(O)cccc32)c2c1CCCC2
inactive: [1] 105 % of control | [2] 102 % of control | [3] 93 % of control

c1ccc(C2=NN=C(c3ccccc3)N(c3ccccc3)N2)cc1
inactive: [4] 105 % of control | [5] 97 % of control | [6] 97 % of control

CCCCCCCCCCCCN(O)C(=O)c1ccccc1
inactive: dose: 50.0 mg/kg/injection, schedule: Q01DX009 (ip), vehicle: Klucel (hydroxypropylcellulose) (HPC) 99 % of control and 115 % of control | dose: 100.0 mg/kg/injection, schedule: Q01DX009 (ip), vehicle: Klucel (hydroxypropylcellulose) (HPC) 104 % of control | dose: 200.0 mg/kg/injection, schedule: Q01DX009 (ip), vehicle: Klucel (hydroxypropylcellulose) (HPC) 108 % of control and 96 % of control

CC(C)COc1cccc2[oH+]c(C(=O)[O-])cc(=O)c12.CC(C)COc1cccc2[oH+]c(C(=O)[O-])cc(=O)c12.[Cu+2]
inactive: dose: 12.5 mg/kg/injection, schedule: Q04DX002 (ip), vehicle: saline with Tween-80 104 % of control | dose: 25.0 mg/kg/injection, schedule: Q04DX002 (ip), vehicle: saline with Tween-80 95 % of control | dose: 50.0 mg/kg/injection, schedule: Q04DX002 (ip), vehicle: saline with Tween-80 94 % of control

CCCCCCCCCCCCOC(=O)c1ccc(I)cc1
inactive: [7] 97 % of control | [8] 97 % of control | [9] 102 % of control

OCC1=C(CO)CC=CC1
inactive: [10] 96 % of control | [11] 96 % of control | dose: 240.0 mg/kg/injection, schedule: Q01DX005 (ip), vehicle: saline with Tween-80 95 % of control

c1ccc(N2N=NC3CCOC32)cc1 (configuration not stated)
inactive: [4] 94 % of control | [5] 102 % of control | [6] 106 % of control

CCCCc1ccc(-n2c(C)nc3[nH]cc(C)c3c2=N)cc1
inactive: [1] 96 % of control | [2] 102 % of control | [3] 97 % of control

CCn1c2ccc(N)cc2c2c3ncc4cccn4c3ccc21
inactive: [10] 88 % of control | [11] 87 % of control

CC(C)N(C(C)C)P1(=S)N(C(C)(C)C)N=NN1C(C)(C)C
inactive: [1] 91 % of control | [2] 101 % of control | [3] 91 % of control

CC(C(=O)c1ccc(O)cc1)C1(O)C(=O)Nc2ccccc21 (configuration not stated)
inactive: [4] 98 % of control | [5] 100 % of control | [6] 101 % of control

N#Cc1ncc(C=P(c2ccccc2)(c2ccccc2)c2ccccc2)n(O)c1=N
inactive: [7] 101 % of control | [8] 104 % of control

CC(C)NC(=O)OCc1c(COC(=O)NC(C)C)c(-c2ccc(Cl)c(Cl)c2)n2c1CS(=O)C2 (configuration not stated)
inactive: dose: 12.5 mg/kg/injection, schedule: Q01DX005 (ip), vehicle: Klucel + Tween-80 99 % of control | dose: 25.0 mg/kg/injection, schedule: Q01DX005 (ip), vehicle: Klucel + Tween-80 97 % of control | dose: 50.0 mg/kg/injection, schedule: Q01DX005 (ip), vehicle: Klucel + Tween-80 92 % of control | dose: 100.0 mg/kg/injection, schedule: Q01DX005 (ip), vehicle: Klucel + Tween-80 89 % of control | dose: 200.0 mg/kg/injection, schedule: Q01DX005 (ip), vehicle: Klucel + Tween-80 104 % of control and 89 % of control

O=[N+]([O-])c1cccc(SNSc2cccc([N+](=O)[O-])c2)c1
inactive: dose: 100.0 mg/kg/injection, schedule: Q04DX002 (ip), vehicle: Klucel (hydroxypropylcellulose) (HPC) 90 % of control | dose: 200.0 mg/kg/injection, schedule: Q04DX002 (ip), vehicle: Klucel (hydroxypropylcellulose) (HPC) 88 % of control | dose: 400.0 mg/kg/injection, schedule: Q04DX002 (ip), vehicle: Klucel (hydroxypropylcellulose) (HPC) 94 % of control

C=C(Cl)CSc1ncnc2nc[nH]c12
inactive: [7] 100 % of control | dose: 50.0 mg/kg/injection, schedule: Q04DX003 (ip), vehicle: saline with Tween-80 95 % of control | [8] 109 % of control | dose: 100.0 mg/kg/injection, schedule: Q04DX003 (ip), vehicle: saline with Tween-80 91 % of control | [9] 109 % of control | dose: 200.0 mg/kg/injection, schedule: Q04DX003 (ip), vehicle: saline with Tween-80 91 % of control

COCN(C)N=Nc1ccc(C#N)cc1
inactive: dose: 60.0 mg/kg/injection, schedule: Q01DX005 (ip), vehicle: Klucel (hydroxypropylcellulose) (HPC) 100 % of control | dose: 120.0 mg/kg/injection, schedule: Q01DX005 (ip), vehicle: Klucel (hydroxypropylcellulose) (HPC) 117 % of control | dose: 240.0 mg/kg/injection, schedule: Q01DX005 (ip), vehicle: Klucel (hydroxypropylcellulose) (HPC) 117 % of control

Cc1ccc2sc3ccccc3c(=O)c2c1
inactive: dose: 50.0 mg/kg/injection, schedule: Q01DX009 (ip), vehicle: saline 104 % of control | dose: 100.0 mg/kg/injection, schedule: Q01DX009 (ip), vehicle: saline 113 % of control | dose: 200.0 mg/kg/injection, schedule: Q01DX009 (ip), vehicle: saline 87 % of control

O=C(N/N=C/c1cc(Cl)cc(Cl)c1[O-])c1ccccc1.O=C(N/N=C/c1cc(Cl)cc(Cl)c1[O-])c1ccccc1.[Cu+2]
inactive: dose: 100.0 mg/kg/injection, schedule: Q01DX001 (ip), vehicle: saline with Tween-80 94 % of control | dose: 200.0 mg/kg/injection, schedule: Q01DX001 (ip), vehicle: saline with Tween-80 92 % of control | dose: 400.0 mg/kg/injection, schedule: Q01DX001 (ip), vehicle: saline with Tween-80 104 % of control

CCOP(=O)(CC=O)OCC
inactive: [12] 95 % of control | [13] 100 % of control | [14] 101 % of control

CCN(CC)SC(=S)SN(CC)CC
inactive: dose: 50.0 mg/kg/injection, schedule: Q04DX003 (ip), vehicle: saline 98 % of control | dose: 100.0 mg/kg/injection, schedule: Q04DX003 (ip), vehicle: saline 96 % of control | dose: 200.0 mg/kg/injection, schedule: Q04DX003 (ip), vehicle: saline 98 % of control | dose: 400.0 mg/kg/injection, schedule: Q04DX003 (ip), vehicle: saline 104 % of control

O=C(CCOCCCOCCC(=O)OCCCBr)OCCCBr
inactive: [1] 102 % of control | [2] 98 % of control | [3] 98 % of control

C=C1C(=O)OC2CC1CCC1(C)OC1CCC(C)=CCCC2(C)O (configuration not stated)
inactive: dose: 7.5 mg/kg/injection, schedule: Q01DX009 (ip), vehicle: Klucel (hydroxypropylcellulose) (HPC) 100 % of control and 101 % of control | dose: 15.0 mg/kg/injection, schedule: Q01DX009 (ip), vehicle: Klucel (hydroxypropylcellulose) (HPC) 107 % of control and 119 % of control | dose: 30.0 mg/kg/injection, schedule: Q01DX009 (ip), vehicle: Klucel (hydroxypropylcellulose) (HPC) 107 % of control and 108 % of control | dose: 60.0 mg/kg/injection, schedule: Q01DX009 (ip), vehicle: Klucel (hydroxypropylcellulose) (HPC) 108 % of control

COC(=O)c1ccc(SCC2=Nc3c(nc(N)[nH]c3=O)NCC2)cc1
inactive: dose: 12.5 mg/kg/injection, schedule: Q01DX009 (ip), vehicle: distilled water + Tween-80 99 % of control | dose: 25.0 mg/kg/injection, schedule: Q01DX009 (ip), vehicle: distilled water + Tween-80 93 % of control | dose: 50.0 mg/kg/injection, schedule: Q01DX009 (ip), vehicle: distilled water + Tween-80 90 % of control | dose: 100.0 mg/kg/injection, schedule: Q01DX009 (ip), vehicle: distilled water + Tween-80 90 % of control

CNC(=O)C(NC(=O)C(NC(=O)c1c2nc3c(C(=O)NC(C(=O)NC(C(=O)NC)C(C)C)C(C)O)ccc(C)c3oc-2c(C)c(=O)c1N)C(C)O)C(C)C (configuration not stated)
inactive: dose: 0.05 mg/kg/injection, schedule: Q01DX009 (ip), vehicle: water 101 % of control | dose: 0.1 mg/kg/injection, schedule: Q01DX009 (ip), vehicle: water 110 % of control | dose: 0.2 mg/kg/injection, schedule: Q01DX009 (ip), vehicle: water 100 % of control | dose: 0.4 mg/kg/injection, schedule: Q01DX009 (ip), vehicle: water 99 % of control | dose: 0.8 mg/kg/injection, schedule: Q01DX009 (ip), vehicle: water 108 % of control | dose: 1.6 mg/kg/injection, schedule: Q01DX009 (ip), vehicle: water 99 % of control and 90 % of control | dose: 3.2 mg/kg/injection, schedule: Q01DX009 (ip), vehicle: water 97 % of control | dose: 6.4 mg/kg/injection, schedule: Q01DX009 (ip), vehicle: water 97 % of control | dose: 12.8 mg/kg/injection, schedule: Q01DX009 (ip), vehicle: water 99 % of control

CC1=C/C(=C(\c2ccccc2)c2cc(C)c(O)c(CNCC(=O)O)c2)C=C(CNCC(=O)O)C1=O
inactive: [12] 95 % of control | [13] 103 % of control | [14] 108 % of control
